Where two headings read alike, the source gives them in different places.

What all share (type): in vivo
One series has as its system souris. The series is described as follows: Acute toxicity (mortality, LD50) in mice. The settings on record: mouse.
The test system of series [1] is rat Wistar soumis à une surcharge saline. Put plainly: Diuretic activity in selected Wistar rats given a saline overload (modified Wiebelhaus test). As for the experimental part:
L'activité diurétique des produits selon l'invention a été également déterminée chez le rat Wistar soumis à une surcharge saline selon une modification du test décrit par Wiebelhaus et coll., Fed. Proc., 1960, 19, 364, en procédant à une sélection des animaux. A la dose de 20 mg/kg, les COR4003, COR4008, COR4009, COR4010, COR4011, COR4012, COR4014, COR4016, COR4021, COR4025 augmentent l'excrétion urinaire volumétrique mesurée au bout de 6 heures de respectivement 56, 54, 65, 95, 73, 54, 33, 40, 99 et 92 %. L'excrétion urinaire du sodium augmente de respectivement 56, 24, 42, 59, 43, 33, 29, 43, 31, 83, 26, 99, 40 % toujours à cette dose pour les COR4003, COR4008, COR4009, COR4010, COR4011, COR4012, COR4014, COR4016, COR4017, COR4021, COR4023, COR4025 et COR4026. Le rapport Na/K demeure la plupart du temps inchangé. Testé dans les mêmes conditions le furosémide, administré à la dose de 20 mg/kg entraine 63% d'augmentation de l'excrétion urinaire volumétrique et 53% d'augmentation de l'excrétion urinaire du sodium.

Series [2] relates to rat soumis à une surcharge hydrique. Put plainly: Diuretic activity in rats given a water overload, oral. The note with it: read-out: facteur multipliant l'excrétion urinaire du sodium. The method, then: L'activité diurétique a été déterminée sur plusieurs modèles expérimentaux. Chez le rat soumis à une surcharge hydrique, administrés par voie orale à la dose de 20 mg/kg, le COR3760, le COR3789, le COR3792, le COR4002, le COR4003, le COR4009, le COR4010, le COR4012 et le COR4014 multiplient l'excrétion urinaire du sodium par respectivement un facteur 2,9 - 3,1 - 5,9 - 2,6 - 7,2 - 3,5 - 3,8 - 2,9 - 2,4. Administrés à la dose de 10 mg/kg, dans les mêmes conditions, les COR3760, COR3789, COR3792, COR4003 et COR4010 multiplient l'excrétion sodique par respectivement 2,3 - 2,9 - 2,8 - 2,4 et 2,5. La spironolactone multiplie quant à elle l'excrétion sodique d'un facteur 3,6 à la dose de 20 mg/kg. Administré à la dose de 5 mg/kg dans les mêmes conditions, le COR3792 multiplie l'excrétion sodique par 3,3. Administré par voie orale chez le rat ou la souris soumis à une surcharge saline, le COR3760 augmente l'excrétion urinaire volumétrique mesurée à la sixième heure de respectivement 49, 119 et 134% chez la souris et 28, 84 et 116% chez le rat après administration de 10, 20, et 40 mg/kg. Le COR3760 a été administré par voie orale au rat soumis à une surcharge hydrique et l'excrétion urinaire volumétrique, le sodium et le potassium excrétés ont été mesurés sur une période de 6 heures; ces paramètres ont varié de respectivement +17%, +102%, +165% à 10 mg/kg, +19%, +147%, +180% à 20 mg/kg et +36%, +415% et +239% à 40 mg/kg; le rapport Na/K passe de 0,56 chez les animaux témoins à 0,4 à 10 mg/kg, 0,49 à 20 mg/kg et 0, 8 à 40 mg/ kg. Au cours d'une seconde expérimentation, le COR3760 a entrainé des variations de +19%, +157%, +70% à 40 mg/kg, +19%, +319%, +90% à 60 mg/kg et +29%, +472% et +77% à 80 mg/kg; le rapport Na/K passe de 0,59 chez les animaux témoins à 0,88 à 40, 1,15 à 60 et 1,88 à 80 mg/kg.

Where [3] appears, read: 6 h, read-out: augmentation de l'excrétion urinaire volumétrique mesurée au bout de 6 heures.
[4] abbreviates: read-out: augmentation de l'excrétion urinaire du sodium.

`CC(=O)NS(=O)(=O)c1cc2c(cc1Cl)C(=O)C(=C(C)NC(C)C)C2=O` [COR4015, N-acétylsulfonamido-6 chloro-5 (isopropylamino-1 éthylidényl)-2 indanedione-1,3]: the mortalité entry is on record as “aucune mortalité” in the series on souris (intraperitoneal, 200 mg/kg) and “aucune mortalité” in the series with souris (oral, 300 mg/kg).

For the compound `CCNC(C)=C1C(=O)c2cc(Cl)c(Cl)cc2C1=O` [COR4007, Dichloro-5,6 (éthylamino-1 éthylidényl)-2 indanedione-1,3], the mortalité result in the series on souris (intraperitoneal, 200 mg/kg) is given as “aucune mortalité”; in the series on souris (oral, 300 mg/kg) it was “aucune mortalité”.

Turning to `CNC(C)=C1C(=O)c2cc(Cl)c(Cl)cc2C1=O` [COR4006, Dichloro-5,6 (méthylamino-1 éthylidényl)-2 indanedione-1,3], the mortalité entry was “aucune mortalité” with souris (intraperitoneal, 200 mg/kg) and “aucune mortalité” in the series on souris (oral, 300 mg/kg).

On to `NS(=O)(=O)c1cc(C(=O)O)c(NCc2ccco2)cc1Cl` [furosémide, reference compound], for which the change in vivo at 20 mg/kg was determined as 63% in series [1] (setting [3]) and 53% in series [1] (setting [4]).

`CC(N)=C1C(=O)c2ccccc2C1=O` [COR4026, (Amino-1 éthylidényl)-2 indanedione-1,3]: in series [1] (setting [4]), the change in vivo at 20 mg/kg stood at 40%.

As for `CC(NC(C)C)=C1C(=O)c2cc(Cl)c(Cl)cc2C1=O` [COR4016, Dichloro-5,6 (isopropylamino-1 éthylidényl)-2 indanedione-1,3], the change in vivo at 20 mg/kg in series [1] (setting [3]) is 40%; in series [1] (setting [4]) it was 43%. The mortalité entry in the series with souris (intraperitoneal, 200 mg/kg) was “aucune mortalité”; in the series on souris (oral, 300 mg/kg), “aucune mortalité”.

For `CCCC(NC)=C1C(=O)c2ccccc2C1=O` [COR4017, (Méthylamino-1 butylidényl)-2 indanedione-1,3], the change in vivo at 20 mg/kg in series [1] (setting [4]) worked out at 31%.

As to `CCNC(C)=C1C(=O)c2ccc(Cl)cc2C1=O` [COR3774, Chloro-5 (éthylamino-1 éthylidène)-2 indanedione-1,3], the mortalité entry in the series on souris (intraperitoneal, 200 mg/kg) is listed as “aucune mortalité”; in the series with souris (oral, 300 mg/kg) it was “aucune mortalité”.

Take `CC(NC1CCCCC1)=C1C(=O)c2ccccc2C1=O` [COR4013, (Cyclohexylamino-1 éthylidényl)-2 indanedione-1,3]: the mortalité result with souris (intraperitoneal, 200 mg/kg) was “aucune mortalité”; with souris (oral, 300 mg/kg), “aucune mortalité”.

On to `CCC(NC(C)C)=C1C(=O)c2ccccc2C1=O` [COR4025, (Isopropylamino-1 propylidényl)-2 indanedione-1,3], for which the change in vivo at 20 mg/kg stood at 92% in series [1] (setting [3]) and 99% in series [1] (setting [4]).

For the compound `CCNC(CC)=C1C(=O)c2ccccc2C1=O` [COR4021, (Ethylamino-1 propylidényl)-2 indanedione-1,3], the change in vivo at 20 mg/kg in series [1] (setting [3]) worked out at 99%; in series [1] (setting [4]) it was 83%.

Turning to `CC(=O)S[C@@H]1CC2=CC(=O)CC[C@]2(C)[C@H]2CC[C@@]3(C)[C@@H](CC[C@@]34CCC(=O)O4)[C@H]12` [spironolactone, reference compound], the response vs control in vivo at 20 mg/kg in series [2] (Rattus norvegicus, po) is 360%.

Regarding `CC(NC1CCCC1)=C1C(=O)c2ccccc2C1=O` [COR4012, (Cyclopentylamino-1 éthylidényl)-2 indanedione-1,3], the change in vivo at 20 mg/kg in series [1] (setting [3]) is 54%; in series [1] (setting [4]), 33%. Also, the mortalité entry in the series with souris (intraperitoneal, 200 mg/kg) is “aucune mortalité”; in the series on souris (oral, 300 mg/kg), “aucune mortalité”. Further, the response vs control in vivo at 20 mg/kg in series [2] (rat, water overload, oral, 20 mg/kg) was 290%.

On to `CNC(=C1C(=O)c2ccccc2C1=O)c1ccccc1` [COR4004, (Alpha-méthylamino benzylidényl)-2 indanedione-1,3], for which the mortalité result is given as “aucune mortalité” in the series on souris (intraperitoneal, 200 mg/kg) and “aucune mortalité” in the series on souris (oral, 300 mg/kg).

Turning to `CC(C)NC(=C1C(=O)c2ccccc2C1=O)C(C)C` [COR4023, (Isopropylamino-1 isobutylidényl)-2 indanedione-1,3], in series [1] (setting [4]), the change in vivo at 20 mg/kg worked out at 26%.

Source of the values: patent EP0171342A1, “Substituted 2-(1-amino-akylidenyl)1,3-indane diones, process for their preparation and their therapeutical use” (priority 1984, dated 1986).
